In US10071975B2, “Macrocyclic amidinourea derivatives, methods of preparation and uses thereof as chitinase inhibitors” (CYGNET BIOSCIENCES B.V., priority 2013, dated 2018):
Values after ≈ are worked out from the molar mass of the structure shown.

Tests used:
[1] = test system: C. albicans; assay: Antimicrobial susceptibility testing (microdilution MIC90), C. albicans strains; assay type: cell-based; details: Candida albicans; C. albicans (22 strains tested); 24 h, visually and spectrophotometrically
Description: (§1) Sterile plastic microtitration plates containing flat-bottomed wells were used. The plates contained serial dilution of the antifungal agents with a volume of assay medium of 100 μL/well. Two drug-free medium wells were used as sterility and growth controls. The trays were inoculated with 100 μL/well of the final inoculum, with the exception of sterility control wells. […] The microtitration plates were incubated at 37° C. for 24 h. The minimal inhibitory concentrations (MICs) were determined at 24 h both visually and spectrophotometrically measuring the turbidity at 595 nm with a Varian model 1475 spectrophotometer. Results of biological tests are shown in Table 2, biological data are reported as MIC90 that is the minimum concentration required to inhibit the growth of at least the 90% of the strains tested for each species.

[2] = test system: C. guilliermondii; assay: Antimicrobial susceptibility testing (microdilution MIC90), C. guilliermondii strains; assay type: cell-based, Candida guilliermondii; details: Meyerozyma guilliermondii; C. guilliermondii (10 strains tested); 24 h
Description: as §1

[3] = test system: C. krusei; assay: Antimicrobial susceptibility testing (microdilution MIC90), C. krusei strains; assay type: cell-based, Candida krusei; details: Pichia kudriavzevii; C. krusei (13 strains tested); 24 h; read-out: MIC90
Description: as §1

[4] = test system: C. parapsilosis; assay: Antimicrobial susceptibility testing (microdilution MIC90), C. parapsilosis strains; assay type: cell-based, Candida parapsilosis; details: Lodderomyces parapsilosis; C. parapsilosis (24 strains tested); 24 h
Description: as §1

[5] = test system: C. tropicalis; assay: Antimicrobial susceptibility testing (microdilution MIC90), C. tropicalis strains; assay type: cell-based; details: Candida tropicalis; C. tropicalis (11 strains tested); 24 h
Description: as §1

[6] = test system: C. kefyr; assay: Antimicrobial susceptibility testing (microdilution MIC90), C. kefyr strains; assay type: cell-based, Candida kefyr; details: Kluyveromyces marxianus; C. kefyr (10 strains tested); 24 h
Description: as §1

[7] = test system: C. glabrata; assay: Antimicrobial susceptibility testing (microdilution MIC90), C. glabrata strains; assay type: cell-based, Candida glabrata; details: Nakaseomyces glabratus; C. glabrata (26 strains tested); 24 h
Description: as §1

[8] = test system: C. albicans fluconazole resistant strains; assay: microbe, parasite or virus in culture; assay type: cell-based; details: Candida albicans, 24 h
[9] = test system: C. glabrata fluconazole resistant strains; assay: microbe, parasite or virus in culture; assay type: cell-based, Candida glabrata; details: Nakaseomyces glabratus, 24 h
[10] = test system: chitinase enzyme extracted from Trichoderma viride; assay: Chitinase inhibition assay (NP-GlcNAc substrate); assay type: biochemical
Description: Chitinase inhibition assays were conducted against an example of the GH18 family of chitinases, i.e the chitinase enzyme extracted from Trichoderma viride. This enzyme has an high degree of identity compared to chitinase 4 of Candida albicans, and is commercially available from Sigma-Aldrich (catalogue ID: C8241).
The substrate used was the NP-GlcNAc (Sigma-Aldrich, catalogue ID: N9376) dissolved in MES 50 mM at pH6.0; the final concentration was 250 μM. The enzyme was resuspended at 0.11 mg/ml in MES 50 mM at pH 6.0, with a final concentration for the assay of 73 nM diluting with MES 50 mM and BSA 20 μg/ml at pH 6.0. A stock solution of the inhibitors was prepared at 50 mM in DMSO 100%.
The mixture with the inhibitor at various concentrations and the enzyme was prepared directly into the reading plate and left to incubate at room temperature for 20 minutes or three hours. At the end of the incubation times, the substrate was added and the reading was conducted by recording the values up to a maximum time of 10 minutes. The substrate concentration was measured by reading UV absorption at 300 nm (εM^300: 11100), while, the product of hydrolysis were measured at 400 nm (ΔεM^400: 2120). Both IC50 and Ki can be calculated.

[11] = strain DSY284, ERG11 Mutation, mean of three measurements
[12] = strain DSY289, ERG11 Mutation (2)
[13] = strain DSY291, ERG11 Mutation (2)
[14] = strain DSY292, ERG11 Mutation (3)
[15] = strain DSY751, ↑MDR1, ERG11 Mutation
[16] = Enz.-inhib. incubation time 20 min
[17] = Enz.-inhib. incubation time 3 h

SMILES: C/C=C/CNC(=N)NCCCCCCCCN1CCCCCCOc2ccccc2CNC(=N)NC1=O [Example 18, 1-[(E)-but-2-enyl]-3-[8-(4-imino-6-oxo-14-oxa-3,5,7-triazabicyclo[13.4.0]nonadeca-1(15), 16,18-trien-7-yl)octyl]guanidine]
- MIC90 [1]: 4 µg/mL (≈ 7.79 µM)
- MIC90 [2]: 2 µg/mL (≈ 3.89 µM)
- MIC90 [3]: 4 µg/mL (≈ 7.79 µM)
- MIC90 [4]: 2 µg/mL (≈ 3.89 µM)
- MIC90 [5]: 1 µg/mL (≈ 1.95 µM)
- MIC90 [6]: 2 µg/mL (≈ 3.89 µM)
- MIC90 [7]: 16 µg/mL (≈ 31.1 µM)
- MIC [8, 11]: 8 µg/mL (≈ 15.6 µM)
- MIC [8, 12]: 8 µg/mL (≈ 15.6 µM)
- MIC [8, 13]: 16 µg/mL (≈ 31.1 µM)
- MIC [8, 14]: 16 µg/mL (≈ 31.1 µM)
- MIC ([8]; strain DSY296, ERG11 Mutation): 16 µg/mL (≈ 31.1 µM)
- MIC ([8]; strain DSY348, ERG11 Mutation): 8 µg/mL (≈ 15.6 µM)
- MIC ([8]; strain DSY732, ↑CDR1-CDR2): 16 µg/mL (≈ 31.1 µM)
- MIC ([8]; strain DSY735, ↑CDR1-CDR2): 16 µg/mL (≈ 31.1 µM)
- MIC ([8]; strain DSY750, ↑MDR1): 16 µg/mL (≈ 31.1 µM)
- MIC [8, 15]: 16 µg/mL (≈ 31.1 µM)
- MIC ([8]; strain DSY775, ERG11 Mutation): 16 µg/mL (≈ 31.1 µM)
- MIC ([8]; strain DSY2323, ↑CDR2-MDR1): 16 µg/mL (≈ 31.1 µM)
- MIC ([9]; strain DSY530, ↑CDR1): 32 µg/mL (≈ 62.3 µM)
- MIC ([9]; strain DSY754, ↑CDR1): 32 µg/mL (≈ 62.3 µM)
- MIC ([9]; strain DSY756, ↑CDR1-CDR2-SNQ2): 64 µg/mL (≈ 125 µM)
- MIC ([9]; strain DSY2254, ↑CDR1-CDR2): 64 µg/mL (≈ 125 µM)
- MIC ([9]; strain DSY2271, ↑CDR2): 32 µg/mL (≈ 62.3 µM)

SMILES: C/C=C/CNC(=N)NCCCCCCCCN1CCCCCOc2ccccc2CNC(=N)NC1=O [Example 17, 1-[(E)-but-2-enyl]-3-[8-(4-imino-6-oxo-13-oxa-3,5,7-triazabicyclo[12.4.0]octadeca-1(14),15,17-trien-7-yl)octyl]guanidine]
- MIC90 [1]: 4 µg/mL (≈ 8 µM)
- MIC90 [2]: 2 µg/mL (≈ 4 µM)
- MIC90 [3]: 8 µg/mL (≈ 16 µM)
- MIC90 [4]: 2 µg/mL (≈ 4 µM)
- MIC90 [5]: 2 µg/mL (≈ 4 µM)
- MIC90 [6]: 4 µg/mL (≈ 8 µM)
- MIC90 [7]: 8 µg/mL (≈ 16 µM)
- MIC [8, 11]: 2 µg/mL (≈ 4 µM)
- MIC [8, 12]: 2 µg/mL (≈ 4 µM)
- MIC [8, 13]: 4 µg/mL (≈ 8 µM)
- MIC [8, 14]: 4 µg/mL (≈ 8 µM)
- MIC ([8]; strain DSY296, ERG11 Mutation): 4 µg/mL (≈ 8 µM)
- MIC ([8]; strain DSY348, ERG11 Mutation): 2 µg/mL (≈ 4 µM)
- MIC ([8]; strain DSY732, ↑CDR1-CDR2): 2 µg/mL (≈ 4 µM)
- MIC ([8]; strain DSY735, ↑CDR1-CDR2): 2 µg/mL (≈ 4 µM)
- MIC ([8]; strain DSY750, ↑MDR1): 4 µg/mL (≈ 8 µM)
- MIC [8, 15]: 4 µg/mL (≈ 8 µM)
- MIC ([8]; strain DSY775, ERG11 Mutation): 4 µg/mL (≈ 8 µM)
- MIC ([8]; strain DSY2323, ↑CDR2-MDR1): 4 µg/mL (≈ 8 µM)
- MIC ([9]; strain DSY530, ↑CDR1): 8 µg/mL (≈ 16 µM)
- MIC ([9]; strain DSY754, ↑CDR1): 16 µg/mL (≈ 32 µM)
- MIC ([9]; strain DSY756, ↑CDR1-CDR2-SNQ2): 8 µg/mL (≈ 16 µM)
- MIC ([9]; strain DSY2254, ↑CDR1-CDR2): 16 µg/mL (≈ 32 µM)
- MIC ([9]; strain DSY2271, ↑CDR2): 8 µg/mL (≈ 16 µM)
- inhibition of the chitinase enzyme [10]: active inhibitor
- IC50 [10, 16]: 151 µM
- Ki [10, 16]: 48.8 µM
- IC50 [10, 17]: 55 µM
- Ki [10, 17]: 17.8 µM
